Read-outs that look alike come from different tables or passages of the source.
Legend:
Assay type in all cases: in vivo
[1] = test system: Culex pipiens pallens; experiment: Test Example 4: mosquito larvae test in treated water; details: 24 h, read-out: rate of dead pests
Procedure: 0.7 ml of above test solution was added to 100 ml of ion exchanged water (active ingredient concentration: 3.5 ppm). Twenty last-instar larvae of Culex pipiens pallens were set free in the solution. After one day, the number of surviving and dead Culex pipiens pallens was examined and the rate of dead pests was calculated.

[2] = test system: Blattella germanica; experiment: Test Example 3: filter paper/sucrose bait test against German cockroach imagoes; details: Blattella germanica, 144 h, read-out: rate of dead pests
Procedure: (§1) On the bottom of a polyethylene cup having a diameter of 5.5 cm, a filter paper having the same diameter was laid, and 0.7 ml of the above test solution was added dropwise on the filter paper, followed by putting 30 mg of sucrose on it uniformly as a bait. Two male Blattella germanica imagoes were set free in the polyethylene cup and covered it with a lid. After 6 days, the number of surviving and dead Blattella germanica was examined and the rate of dead pests was calculated.

[3] = test system: Musca domestica; experiment: Test Example 2: filter paper/sucrose bait test against housefly imagoes; details: read-out: rate of dead pests
Procedure: as §1, with “Ten female Musca domestica” for “Two male Blattella germanica”, “24 hours,” for “6 days,”, “Musca domestica” for “Blattella germanica”

[4] = active ingredient concentration 3.5 ppm in water, twenty last-instar larvae, after one day
[5] = 500 ppm test solution, 0.7 ml on filter paper with 30 mg sucrose, two male imagoes, after 6 days
[6] = 500 ppm test solution, 0.7 ml on filter paper with 30 mg sucrose, ten female imagoes, after 24 hours

SMILES | pest or weed control at 3.5 ppm [1, 4] [%] | pest or weed control at 500 ppm [2, 5] [%] | pest or weed control at 500 ppm [3, 6] [%] | pest or weed control at 3.5 ppm [1] [%] | pest or weed control at 500 ppm [2] [%] | pest or weed control at 500 ppm ([3]; 24 h) [%]
COC(=O)C(CCC(F)(F)F)S(=O)(=O)CCC(F)(F)F (stereo not shown) [(76)] | ≥ 90 |  |  |  |  | 
CC(C#N)(CCC(F)(F)C(F)(F)F)[S+]([O-])CCC(F)(F)F (stereo not shown) [(57)] | ≥ 90 | 100 | ≥ 70 |  |  | 
CC(C#N)(CCC(F)(F)C(F)(F)F)S(=O)(=O)CCC(F)(F)F (stereo not shown) [(11)] | ≥ 90 | 100 | ≥ 70 |  |  | 
COC(=O)C(CCC(F)(F)C(F)(F)F)S(=O)(=O)CCC(F)(F)C(F)(F)C(F)(F)F (stereo not shown) [(42)] |  |  |  | ≥ 90 |  | 
COC(=O)C(CCC(F)(F)C(F)(F)F)S(=O)(=O)CCC(F)(F)F (stereo not shown) [(23)] | ≥ 90 | 100 | ≥ 70 |  |  | 
COC(=O)C(C)(CCC(F)(F)C(F)(F)F)[S+]([O-])CCC(F)(F)F (stereo not shown) [(71)] | ≥ 90 | 100 | ≥ 70 |  |  | 
COC(=O)C(CCC(F)(F)C(F)(F)F)S(=O)(=O)CCC(F)(F)C(F)(F)F (stereo not shown) [(24)] | ≥ 90 |  |  |  |  | 
N#CC(CCC(F)(F)F)S(=O)(=O)CCC(F)(F)C(F)(F)F (stereo not shown) [(53)] | ≥ 90 | 100 | ≥ 70 |  |  | 
COC(=O)C(Cl)(CCC(F)(F)C(F)(F)C(F)(F)F)S(=O)(=O)CCC(F)(F)F (stereo not shown) [(83)] |  |  |  | ≥ 90 |  | 
CCC(CCC(F)(F)C(F)(F)F)(C(N)=O)S(=O)(=O)CCC(F)(F)F (stereo not shown) [(38)] | ≥ 90 | 100 | ≥ 70 |  |  | 
N#CC(CCC(F)(F)C(F)(F)F)S(=O)(=O)CCC(F)(F)C(F)(F)C(F)(F)F (stereo not shown) [(10)] |  |  |  | ≥ 90 | 100 | ≥ 70
COC(=O)C(CCCC(F)(F)F)S(=O)(=O)CCC(F)(F)F (stereo not shown) [(78)] |  | 100 |  |  |  | 
N#CC(CCC(F)(F)C(F)(F)F)S(=O)(=O)CCC(F)(F)F (stereo not shown) [(3)] | ≥ 90 | 100 | ≥ 70 |  |  | 
CC(C)NC(=O)C(C)(CCC(F)(F)C(F)(F)F)S(=O)(=O)CCC(F)(F)F (stereo not shown) [(41)] | ≥ 90 | 100 | ≥ 70 |  |  | 
NC(=O)C(Cl)(CCC(F)(F)C(F)(F)C(F)(F)F)S(=O)(=O)CCC(F)(F)F (stereo not shown) [(84)] |  |  |  | ≥ 90 | 100 | ≥ 70
COC(=O)C(Cl)(CCCC(F)(F)F)S(=O)(=O)CCC(F)(F)F (stereo not shown) [(79)] | ≥ 90 | 100 | ≥ 70 |  |  | 
COC(=O)C(Cl)(CCC(F)(F)F)S(=O)(=O)CCC(F)(F)C(F)(F)F (stereo not shown) [(93)] | ≥ 90 | 100 | ≥ 70 |  |  | 
COC(=O)C(CCC(F)(F)C(F)(F)C(F)(F)F)S(=O)(=O)CCC(F)(F)C(F)(F)F (stereo not shown) [(95)] |  |  |  |  |  | ≥ 70
COC(=O)C(C)(CCC(F)(F)C(F)(F)F)S(=O)(=O)CCC(F)(F)C(F)(F)C(F)(F)F (stereo not shown) [(43)] |  |  |  |  |  | ≥ 70
CC(C)C(C#N)(CCC(F)(F)C(F)(F)F)S(=O)(=O)CCC(F)(F)F (stereo not shown) [(17)] | ≥ 90 | 100 | ≥ 70 |  |  | 
CC(C#N)(CC(F)(F)C(F)(F)C(F)(F)F)S(=O)(=O)CCC(F)(F)F (stereo not shown) [(12)] |  |  |  | ≥ 90 | 100 | ≥ 70
CNC(=O)C(CCC(F)(F)C(F)(F)F)S(=O)(=O)CCC(F)(F)F (stereo not shown) [(32)] | ≥ 90 | 100 | ≥ 70 |  |  | 
CNC(=O)C(F)(CCC(F)(F)C(F)(F)F)S(=O)(=O)CCC(F)(F)F (stereo not shown) [(69)] | ≥ 90 | 100 | ≥ 70 |  |  | 
CN(C)C(=O)C(CCC(F)(F)C(F)(F)F)S(=O)(=O)CCC(F)(F)F (stereo not shown) [(33)] | ≥ 90 | 100 | ≥ 70 |  |  | 
COC(=O)C(Cl)(CCC(F)(F)C(F)(F)C(F)(F)F)S(=O)(=O)CCC(F)(F)C(F)(F)F (stereo not shown) [(96)] |  |  |  | ≥ 90 | 100 | ≥ 70
NC(=O)C(F)(CCC(F)(F)C(F)(F)F)S(=O)(=O)CCC(F)(F)C(F)(F)F (stereo not shown) [(73)] | ≥ 90 | 100 | ≥ 70 |  |  | 

Reference: patent US8017656B2, “Organic sulfur compounds and use thereof” (Sumitomo Chemical Company, Limited, priority 2005, dated 2011)
